Like-named read-outs stand apart in the source and are kept apart here.
Test system: isolated rat soleus muscles
Test: Measurement of force in an in vitro model: recovery of contractile force of isolated rat soleus nerve-muscle preparation after tubocurarine
Details: 40 min, read-out: Point increase (%): percentage increase of initial force that was restored
Protocol: The current disclosure relates to compounds that inhibit CIC-1 ion channels and increase muscle excitability and thereby improve muscle function in clinical conditions where muscle activation is failing. Such conditions result in loss of contractile function of skeletal muscle, weakness and excessive fatigue. In this series of experiments the compounds were tested for their ability to restore contractile function of isolated rat muscle when the neuromuscular transmission had been compromised akin to neuromuscular disorders.
Experimentally, soleus muscles from 4-5 wk old rats were isolated with the motor nerve remaining attached. The nerve-muscle preparations were mounted in experimental setups that enabled electrical stimulation of the motor nerve. Stimulation of the motor nerve led to activation of the muscle fibres and ensuing force production that was recorded. The nerve-muscle preparations were also in these experiments incubated in the standard Krebs Ringer (see example 15) and the solution was heated to 30° C. and continuously equilibrated with a mixture of 95% O2 and 5% CO2, pH ~7.4.
After mounting the nerve-muscle preparation in the experimental setup, the contractile function of the muscle was initially assessed under the control conditions. Sub-maximal concentration of tubocurarine (115 nM), an acetylcholine receptor antagonist, was then added to the experimental bath to impose partial inhibition of the ability of the motor nerve to activate the muscle fibres. The experimental condition mimics the failing neuromuscular transmission in a range of neuromuscular disorders. After addition of tubocurarine the contractile force declined over the next 90 minutes to 10-50% of the control force. The test compound was then added to obtain the required compound concentration in the bath and the contractile force recovered was measured. To quantify the ability of the compound to restore force the percentage of the initial force that was restored was determined after 40 mins of compound exposure and the point increase is reported in Tables 3 to 7.

[1] = 50 μM of test compound, tubocurarine 115 nM, after 40 mins of compound exposure
[2] = 25 μM of test compound, tubocurarine 115 nM, after 40 mins of compound exposure
[3] = 100 μM of test compound, tubocurarine 115 nM, after 40 mins of compound exposure

COc1c(Cl)cc2c(c1C(=O)O)N(C)CCO2 [Compound A-10, 7-Chloro-6-methoxy-4-methyl-3,4-dihydro-2H-1,4-benzoxazine-5-carboxylic acid]
activation at 10 µM: 36%

O=C(O)c1c(F)c(Cl)cc2c1NCCO2 [Compound A-11, 7-Chloro-6-fluoro-3,4-dihydro-2H-1,4-benzoxazine-5-carboxylic acid]
activation at 50 µM [1]: 23%

COc1c(Cl)cc2c(c1C(=O)O)OCCCN2C [Compound A-12, 7-Chloro-8-methoxy-5-methyl-2,3,4,5-tetrahydro-1,5-benzoxazepine-9-carboxylic acid]
activation at 50 µM: 54%

COc1c(Cl)cc2c(c1C(=O)O)OCCN2 [Compound A-14, 6-Chloro-7-methoxy-3,4-dihydro-2H-1,4-benzoxazine-8-carboxylic acid]
activation at 25 µM [2]: 28%

O=C(O)c1c(F)c(Cl)cc2c1OCCCN2 [Compound A-15, 7-Chloro-8-fluoro-2,3,4,5-tetrahydro-1,5-benzoxazepine-9-carboxylic acid]
activation at 50 µM: 51%

CCOc1c(Cl)cc2c(c1C(=O)O)OCCCN2C [Compound A-16, 7-chloro-8-ethoxy-5-methyl-2,3,4,5-tetrahydro-1,5-benzoxazepine-9-carboxylic acid]
activation at 50 µM [1]: 49%

O=C(O)c1c(F)c(Cl)cc2c1OCCN2CC1CC1 [Compound A-20, 6-Chloro-4-(cyclopropylmethyl)-7-fluoro-3,4-dihydro-2H-1,4-benzoxazine-8-carboxylic acid]
activation at 50 µM [1]: 22%

O=C(O)c1c(F)c(Cl)cc2c1OCCN2Cc1ccccc1 [Compound A-22, 4-Benzyl-6-chloro-7-fluoro-3,4-dihydro-2H-1,4-benzoxazine-8-carboxylic acid]
activation at 100 µM [3]: 15%

CC(C)Oc1c(Cl)cc2c(c1C(=O)O)OCCN2C [Compound A-24, 6-Chloro-4-methyl-7-(propan-2-yloxy)-3,4-dihydro-2H-1,4-benzoxazine-8-carboxylic acid]
activation at 50 µM: 34%

CSc1c(Cl)cc2c(c1C(=O)O)OCCN2C [Compound A-26, 6-Chloro-4-methyl-7-(methylsulfanyl)-3,4-dihydro-2H-1,4-benzoxazine-8-carboxylic acid]
activation at 25 µM: 28%

COc1c(C)cc2c(c1C(=O)O)OCCN2C [Compound A-31, 7-Methoxy-4,6-dimethyl-3,4-dihydro-2H-1,4-benzoxazine-8-carboxylic acid]
activation at 50 µM: 32%

COc1c(Cl)cc2c(c1C(=O)O)OCCN2C(C)C [Compound A-32, 6-Chloro-7-methoxy-4-(propan-2-yl)-3,4-dihydro-2H-1,4-benzoxazine-8-carboxylic acid]
activation at 50 µM [1]: 39%

COc1c(Cl)cc2c(c1C(=O)O)OCCN2CCc1ccccc1 [Compound A-33, 6-Chloro-7-methoxy-4-(2-phenylethyl)-3,4-dihydro-2H-1,4-benzoxazine-8-carboxylic acid]
activation at 50 µM [1]: 25%

COCC1CN(C)c2cc(Cl)c(OC)c(C(=O)O)c2O1 (stereo not drawn) [Compound A-35, 6-Chloro-7-methoxy-2-(methoxymethyl)-4-methyl-3,4-dihydro-2H-1,4-benzoxazine-8-carboxylic acid]
activation at 50 µM [1]: 21%

COc1c(Cl)cc2c(c1C(=O)O)OC(C)(C)CN2C [Compound A-37, 6-Chloro-7-methoxy-2,2,4-trimethyl-3,4-dihydro-2H-1,4-benzoxazine-8-carboxylic acid]
activation at 50 µM [1]: 51%

COCCN1CCOc2c1cc(Cl)c(F)c2C(=O)O [Compound A-38, 6-Chloro-7-fluoro-4-(2-methoxyethyl)-3,4-dihydro-2H-1,4-benzoxazine-8-carboxylic acid]
activation at 50 µM [1]: 17%

COc1c(Cl)cc2c(c1C(=O)O)OC1(CCC1)CN2C [Compound A-39, 6-Chloro-7-methoxy-4-methyl-3,4-dihydrospiro[1,4-benzoxazine-2,1′-cyclobutane]-8-carboxylic acid]
activation at 50 µM [1]: 35%

COc1c(Cl)cc2c(c1C(=O)O)OCCN2CCCc1ccco1 [Compound A-40, 6-Chloro-4-[3-(furan-2-yl)propyl]-7-methoxy-3,4-dihydro-2H-1,4-benzoxazine-8-carboxylic acid]
activation at 25 µM [2]: 14%

O=C(O)c1c(Cl)c(Cl)cc2c1OCCN2Cc1ccccc1 [Compound A-41, 4-Benzyl-6,7-dichloro-3,4-dihydro-2H-1,4-benzoxazine-8-carboxylic acid]
activation at 100 µM: 28%

COc1c(Cl)cc2c(c1C(=O)O)OCCN2Cc1cccs1 [Compound A-42, 6-chloro-7-methoxy-4-[(thiophen-2-yl)methyl]-3,4-dihydro-2H-1,4-benzoxazine-8-carboxylic acid]
activation at 25 µM [2]: 30%

COc1c(Cl)cc2c(c1C(=O)O)OCCN2Cc1nccs1 [Compound A-43, 6-Chloro-7-methoxy-4-[(1,3-thiazol-2-yl)methyl]-3,4-dihydro-2H-1,4-benzoxazine-8-carboxylic acid]
activation at 100 µM [3]: 14%

COc1c(Cl)c(F)c2c(c1C(=O)O)OCCN2C [Compound A-44, 6-Chloro-5-fluoro-7-methoxy-4-methyl-3,4-dihydro-2H-1,4-benzoxazine-8-carboxylic acid]
activation at 25 µM: 35%

O=C(O)c1c(F)c(Cl)cc2c1N(Cc1ccccc1)CCO2 [Compound A-45, 4-Benzyl-7-chloro-6-fluoro-3,4-dihydro-2H-1,4-benzoxazine-5-carboxylic acid]
activation at 10 µM: 43%

O=C(O)c1c(F)c(Cl)cc2c1OCCN2CC1CCC1 [Compound A-46, 6-Chloro-4-(cyclobutylmethyl)-7-fluoro-3,4-dihydro-2H-1,4-benzoxazine-8-carboxylic acid]
activation at 25 µM [2]: 8%

COc1c(Cl)cc2c(c1C(=O)O)OCCN2CCCc1nccs1 [Compound A-47, 6-Chloro-7-methoxy-4-[3-(1,3-thiazol-2-yl)propyl]-3,4-dihydro-2H-1,4-benzoxazine-8-carboxylic acid]
activation at 100 µM [3]: 14%

Cc1c(Cl)cc2c(c1C(=O)O)OCCN2C [Compound A-48, 6-chloro-4,7-dimethyl-3,4-dihydro-2H-1,4-benzoxazine-8-carboxylic acid]
activation at 25 µM: 23%

COc1c(Cl)cc2c(c1C(=O)O)OCCN2Cc1ccccc1 [Compound A-52, 4-Benzyl-6-chloro-7-methoxy-3,4-dihydro-2H-1,4-benzoxazine-8-carboxylic acid]
activation at 25 µM: 14%

COc1c(Cl)cc2c(c1C(=O)O)OCCN2CCc1cc(F)cc(F)c1 [Compound A-53, 6-Chloro-4-[2-(3,5-difluorophenyl)ethyl]-7-methoxy-3,4-dihydro-2H-1,4-benzoxazine-8-carboxylic acid]
activation at 25 µM [2]: 30%

CCCN1CCOc2cc(Cl)c(F)c(C(=O)O)c21 [Compound A-56, 7-Chloro-6-fluoro-4-propyl-3,4-dihydro-2H-1,4-benzoxazine-5-carboxylic acid]
activation at 35 µM (35 μM of test compound, tubocurarine 115 nM, after 40 mins of compound exposure): 48%

Cc1ccccc1CN1CCOc2cc(Cl)c(F)c(C(=O)O)c21 [Compound A-62, 7-Chloro-6-fluoro-4-[(o-tolyl)methyl]-3,4-dihydro-2H-1,4-benzoxazine-5-carboxylic acid]
activation at 10 µM (10 μM of test compound, tubocurarine 115 nM, after 40 mins of compound exposure): 28%

Reference: patent US20260199369A1, “COMPOUNDS FOR THE TREATMENT OF NEUROMUSCULAR DISORDERS” (NMD PHARMA A/S, priority 2022, published 2026)
